Patent publication US10246498B2, “Genetically encoded histone reporter allele constructs” (THE JOHNS HOPKINS UNIVERSITY, priority 2014, dated 2019)
Entries after “also recorded” stand apart in the source; their conditions may differ.

Experiments:
Klf10 = test: Real-time PCR of Kmt2d target gene Klf10 in spleen cells; type: in vivo, mouse; conditions: spleen cells of Kmt2d+/βGeo mice
Procedure: Real-time PCR was performed using Kmt2d-specific probes for exons 20 and 52 (Mm_02600438 and Mm_01717664, respectively) from TaqMan® Gene Expression Assays (Life Technologies, Carlsbad, Calif.). For a comparison of transfection efficiencies for indicator constructs in transient transfection studies, real-time PCR was performed using SYBR Green Real-Time PCR Master Mix (Life Technologies, Carlsbad, Calif.) and primers IND-F-([…]; SEQ ID NO: 5) and IND-R-([…]; SEQ ID NO: 6) that are specific for the H3K4 methylation indicator. For expression analysis for KMT2D target gene KLF10, real-time PCR was performed using Klf10-specific expression assay (Mm00449812_m1) from TaqMan® Gene Expression Assays (Life Technologies, Carlsbad, Calif.).

H3K4 trimethylation = H3K4 trimethylation (H3K4me3) reporter allele, GFP fluorescence by FACS; type: cell-based; conditions: FIG. 18F
Excerpt: An H3K4 trimethylation reporter was also created (FIG. 5B). This reporter is based on the H3 tail on one end and the TBP associated factor III (TAFIII) […] on the other end; the TAFIII […] only identifies and binds to trimethylated K4 on H3. When the H3K4 site gets trimethylated, the TAFIII […] can bind to the modified H3 tail and bring the two parts of the separated GFP in close proximity. The activity of the epigenetic modification system can be quantified through fluorescence.
Epigenetic reporter alleles were synthesized (OriGene, Rockville, Md.) using published sequences for component elements (Baird et al. (1999) Proc. Natl. Acad. Sci. 96:11241-6; Souslova et al. (2007) BMC Biotechnol. 7:37). Single nucleotide mutations were created using the QuickChange Lightening kit (Agilent Technologies Inc, Santa Clara, Calif.). […] FACS data were analyzed using FlowJo (Tree Star Inc, Ashland, Oreg.). […]
Epigenetic reporter systems were created that monitor either H4 acetylation or H3K4 trimethylation machinery activity in an effort to determine whether there is an ongoing activity deficiency in cells from Kmt2d^+/βGeo mice (FIG. 18A). Both reporter alleles encode halves of green fluorescent protein separated by a flexible linker region (Baird et al. (1999) Proc. Natl. Acad. Sci. 96: 11241-6) with a histone tail and a histone reader at the N- and C-termini, respectively. […]

cell numbers (H3K4 trimethylation; higher doses): decreased cell numbers at higher doses
SMILES: CC(C)[C@H](C(=O)Nc1ccc(C(=O)NO)cc1)c1ccccc1 [AR-42]
Klf10 expression (Klf10): normalization of expression of Klf10; also recorded: normalized
response of the H3K4me3 indicator (H3K4 trimethylation; increasing levels of drug): dose dependent response
